Measurements from article PMC6105804, “In Vitro and In Vivo Evaluation of APX001A/APX001 and Other Gwt1 Inhibitors against Cryptococcus” (Antimicrobial Agents and Chemotherapy, 2018).
In brackets after ≈: the same amount, converted by molar mass. Like-named read-outs stand apart in the source and are kept apart here.

Tests used:
[1] = mouse, in vivo; cited from earlier work
C. gattii = assay: Broth microdilution susceptibility testing (CLSI M27-A3); assay type: cell-based; details: Cryptococcus gattii
Outline: (§1)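 CLSI broth microdilution (M27-A3 yeasts, M38-A2 molds), final 2 to 0.002 µg/ml, 35 °C for 40-48 h (C. albicans, A. fumigatus) or 72 h (C. neoformans). MIC for yeasts at 50% growth reduction versus DMSO control. A. fumigatus endpoint is MEC, lowest concentration shortening hyphae.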

C. neoformans [2] = assay: as above; assay type: cell-based, Cryptococcus neoformans; details: Cryptococcus neoformans
Outline: as §1

strains of C. albicans = system: strains of C. albicans; parameters: method as in ref 24 = [24]; 24. Watanabe NA , Horii T , Miyazaki M , Hata K 2011 In vitro activity of E1210 and in vivo activity of E1211, a water-soluble prodrug of E1210, in combination with other antifungals, abstr F1-1378 .; details: cited from earlier work
C. albicans 90028 = assay: Broth microdilution susceptibility testing (CLSI M27-A3); assay type: cell-based, Candida albicans; details: Candida albicans, 90028; read-out: MIC, C. albicans 90028
Outline: as §1

PIGW protein = system: PIGW protein; parameters: method as in PMID 22143530; details: closest mammalian ortholog of fungal Gwt1; cited from earlier work
A. fumigatus MYA3626 = assay: Broth microdilution susceptibility testing for molds (CLSI M38-A2); assay type: cell-based; details: Aspergillus fumigatus, MYA3626; read-out: MIC or MEC for A. fumigatus MYA3626
Outline: as §1

[3] = system: FLC-susceptible and FLC-nonsusceptible/resistant strains of C. neoformans and C. gattii; assay: Broth microdilution, summary over the 18-strain Cryptococcus collection; assay type: cell-based, Cryptococcus neoformans and Cryptococcus gattii; details: 18 strains of C. neoformans and C. gattii; for MIC: read-out: Geometric mean MIC
Outline: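 CLSI M27-A3 broth microdilution was run with final drug concentrations of 2 to 0.002 μg/ml from DMSO dilutions, incubated at 35°C for 72 h for C. neoformans. MIC was the lowest concentration giving 50% growth reduction versus the no-drug control, read with a mirror.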

[4] = parameters: method as in ref 11, 12 = [11]; 11. Hodges MR , Ople E , Shaw KJ , Mansbach RS , van Marle S , van Hoogdalem E , Kramer W , Wedel P 2017 Phase 1 study to assess safety, tolerability and pharmacokinetics of single and multiple oral d || [12]; 12. Hodges MR , Ople E , Shaw KJ , Mansbach RS , van Marle S , van Hoogdalem E , Wedel P , Kramer W 2017 First-in-human study to assess safety, tolerability and pharmacokinetics of APX001 administered; details: phase 1 studies in healthy volunteers; cited from earlier work
C. neoformans H99 = assay: Microtiter checkerboard synergy with FLC; assay type: cell-based, Cryptococcus neoformans; details: in combination with FLC, MIC read at 50% inhibition, synergy FICI < 0.5
Description: An important consideration for developing a new treatment for CM is the potential for inclusion in combination therapy. We evaluated the synergy of APX001A and APX2020 in combination with FLC using standard microtiter dilution techniques ([33]). […] Importantly, no antagonism was observed.
To establish the antimicrobial activity of the APX001A analogs, broth microdilution susceptibility testing was performed according to Clinical and Laboratory Standards Institute (CLSI) guidelines M27-A3 ([47]) for yeasts and M38-A2 for molds ([48]). APX001A and analogs were first diluted in DMSO to obtain intermediate dilutions. These were further diluted in microtiter plates to obtain a final concentration of 2 to 0.002 μg/ml. One microliter of DMSO was added to the no-drug control wells. The solutions were mixed on a plate shaker for 10 min, and the plates were incubated at 35°C for 40 to 48 h (C. albicans, A. fumigatus) and 72 h (C. neoformans). The minimum concentration that led to a 50% reduction in fungal growth compared to that for the control (determined with the aid of a reading mirror) was determined as the MIC for C. albicans and C. neoformans. The minimum concentration that led to the shortening of hyphae compared to the hyphal growth in DMSO control wells was determined as the minimum effective concentration (MEC) for A. fumigatus (as read for the echinocandins). […]

C. neoformans [5] = system: C. neoformans; parameters: method as in PMID 23740727; details: 46 strains of C. neoformans, global study; cited from earlier work
[6] = C. gattii isolate MYA-4093, read-out: MIC
[7] = C. gattii isolate MYA-4094, read-out: MIC
[8] = C. gattii isolate MYA-4560 (first listing, r17), read-out: MIC
[9] = C. gattii isolate MYA-4560 (second listing, r21), read-out: MIC
[10] = C. gattii isolate MYA-4561, read-out: MIC
[11] = C. gattii isolate MYA-4562, read-out: MIC
[12] = C. gattii isolate MYA-4563, read-out: MIC
[13] = C. gattii isolate MYA-4877, read-out: MIC
[14] = C. gattii isolate RSA-MW-3615 (FLC resistant), read-out: MIC
[15] = Table 1, 50% growth inhibition for FLC, caspofungin and APX compounds, 100% for AMB, read-out: MIC, C. gattii WM276
[16] = 72 h, Table 1, 50% growth inhibition for FLC, caspofungin and APX compounds, 100% for AMB, 72 h, read-out: MIC, C. neoformans H99
[17] = C. neoformans isolate 14116, read-out: MIC
[18] = C. neoformans isolate 76484, read-out: MIC
[19] = C. neoformans isolate DUMC 118.00 (FLC resistant), read-out: MIC
[20] = C. neoformans isolate DUMC 158.03 (FLC resistant), read-out: MIC
[21] = C. neoformans isolate MYA-4564, read-out: MIC
[22] = C. neoformans isolate MYA-4565, read-out: MIC
[23] = C. neoformans isolate MYA-4566, read-out: MIC
[24] = C. neoformans isolate MYA-4567, read-out: MIC
[25] = Table 2, C. neoformans isolate H99, read-out: MIC

MIC (C. gattii; [6])	MIC (C. gattii; [7])	MIC (C. gattii; [8])	MIC (C. gattii; [9])	MIC (C. gattii; [10])	MIC (C. gattii; [11])	MIC (C. gattii; [12])	MIC (C. gattii; [13])	MIC (C. gattii; [14])	MIC (C. gattii; [15])	MIC (C. neoformans [2]; [16])	MIC (C. neoformans [2]; [17])	MIC (C. neoformans [2]; [18])	MIC (C. neoformans [2]; [19])	MIC (C. neoformans [2]; [20])	MIC (C. neoformans [2]; [21])	MIC (C. neoformans [2]; [22])	MIC (C. neoformans [2]; [23])	MIC (C. neoformans [2]; [24])	MIC (C. neoformans [2]; [25])	Compound	also measured
0.5 µg/mL	0.25 µg/mL	0.25 µg/mL	0.25 µg/mL	0.5 µg/mL	0.25 µg/mL	0.5 µg/mL	0.25 µg/mL	0.125 µg/mL	0.125 µg/mL	0.25 µg/mL	0.125 µg/mL	0.125 µg/mL	0.25 µg/mL	0.25 µg/mL	0.125 µg/mL	0.5 µg/mL	0.25 µg/mL	0.25 µg/mL	0.125 µg/mL	Nc1ncccc1-c1cc(Cc2ccc(COc3ccccn3)cc2)no1 [APX001A]	half-life in mice [1]: 1.40 to 2.75 h; strains with synergy with FLC (strains of C. albicans): 2 of 20; MIC (C. albicans 90028): 0.008 µg/mL; sensitivity of PIGW protein to inhibition (PIGW protein): not sensitive to inhibition; MIC (A. fumigatus MYA3626): 0.016 µg/mL; MIC90 [3]: 0.5 µg/mL; MIC [3]: 0.241 µg/mL; exposures in humans [4]: ≥ 200 µg·h/mL; half-life in humans [4]: 60 h; fractional inhibitory concentration index (FICI) (C. neoformans H99): 0.37
2 µg/mL	2 µg/mL	1 µg/mL	1 µg/mL	4 µg/mL	2 µg/mL	4 µg/mL	4 µg/mL	64 µg/mL	1 µg/mL	2 µg/mL	4 µg/mL	4 µg/mL	64 µg/mL	32 µg/mL	4 µg/mL	1 µg/mL	2 µg/mL	1 µg/mL	1 µg/mL	OC(Cn1cncn1)(Cn1cncn1)c1ccc(F)cc1F [FLC, fluconazole, reference compound]	MIC (C. albicans 90028): 0.5 µg/mL; MIC (A. fumigatus MYA3626): > 16 µg/mL; MIC90 [3]: 64 µg/mL; MIC [3]: 3.56 µg/mL; MIC90 (C. neoformans [5]): 4 µg/mL (≈ 13.1 µM)
